Experiment [1] has as its target Human HGPRT. Details: method as in Cesnek et al. 19; Keough et al. 18. The note with it: ref Cesnek et al. 19, Keough et al. 18; cited from earlier work.
Experiment [2] addresses T1, TbrHGPRT (Trypanosoma brucei brucei, UniProt Q07010). Description: Inhibition studies, Ki determination.
The subject of experiment [3] is Human HGPRT. More on the design: method as in de Jersey et al. 10. Conditions: cited from earlier work.
The test system of another experiment is TcrHGPRT. Details: method as in Canyuk et al. 43; Allen & Ullman 54. The note with it: cited from earlier work.
The target in experiment [4] is T1, TbrHGPRT. Put plainly: Kinetic constants of naturally occurring substrates, continuous spectrophotometric assay. The format is biochemical. Details: made in house; host or cells: E. coli BL-21 (DE3), pET-22b. The protocol:
One unit of activity is defined as the number of μmol of purine base converted to its mononucleotide product per minute.
The kinetic constants were calculated using GraphPad Prism 6.0.

For experiment [5], the target named is T1, TbrHGPRT. Put plainly: Standard enzyme activity assay with ammonium sulphate added. The format is biochemical. The note with it: 2M ammonium sulphate added to the cuvette. More on the design: made in house; host or cells: E. coli BL-21 (DE3), pET-22b.
Where [6] appears, read: ref de Jersey et al. 10, read-out: Km.
Where [7] appears, read: ref Canyuk et al. 43, Allen & Ullman 54, read-out: Km.
Where [8] appears, read: ref Canyuk et al. 43, Allen & Ullman 54.

SMILES strings stand for the structures. Where two headings read alike, the source gives them in different places.

T1 sequence (Q07010 whole entry): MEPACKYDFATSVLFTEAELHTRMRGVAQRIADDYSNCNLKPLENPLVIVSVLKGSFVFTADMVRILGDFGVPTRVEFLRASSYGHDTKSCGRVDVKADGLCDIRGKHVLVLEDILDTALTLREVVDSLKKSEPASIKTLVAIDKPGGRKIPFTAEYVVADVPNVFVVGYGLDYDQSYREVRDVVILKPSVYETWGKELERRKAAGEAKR

Regarding `Nc1nc2c(ncn2CCCCP(=O)(O)O)c(=O)[nH]1` [Compound 1], the Ki – broadly, the equilibrium dissociation constant of an inhibitor or competing ligand from its target – on Human HGPRT [1] was 21 µM; on TbrHGPRT [2], 23.7 ± 0.3 µM.

For the molecule `Nc1nc2c(ncn2CCCCCP(=O)(O)O)c(=O)[nH]1` [Compound 2], the Ki on Human HGPRT [1] is 0.5 µM; at TbrHGPRT [2], 2.3 ± 0.1 µM.

Turning to `Nc1nc2c(ncn2CCCCCCP(=O)(O)O)c(=O)[nH]1` [Compound 3], the Ki at Human HGPRT [1] is 0.5 µM; on TbrHGPRT [2], 21.3 ± 0.4 µM.

As to `O=c1[nH]cnc2c1ncn2CCCP(=O)(O)O` [Compound 4], the inhibitory constant (Ki) at Human HGPRT [1] and on TbrHGPRT [2] was greater than 100 µM each time.

For the molecule `O=c1[nH]cnc2c1ncn2CCCCP(=O)(O)O` [Compound 5], the Ki was greater than 100 µM on Human HGPRT [1] and 58.6 ± 4 µM at TbrHGPRT [2].

Take `O=c1[nH]cnc2c1ncn2CCCCCP(=O)(O)O` [Compound 6]: the Ki is greater than 100 µM on Human HGPRT [1] and 15.8 ± 1.8 µM on TbrHGPRT [2].

Regarding `O=c1[nH]cnc2c1ncn2CCCCCCP(=O)(O)O` [Compound 7], the inhibition constant (Ki) is 77 µM on Human HGPRT [1] and greater than 100 µM on TbrHGPRT [2].

Regarding `Nc1nc2c(ncn2[C@@H]2O[C@H](COP(=O)(O)O)[C@@H](O)[C@H]2O)c(=O)[nH]1` [GMP, reference compound], the inhibitory constant (Ki) on Human HGPRT [1] is 5.8 ± 0.2 µM; on TbrHGPRT [2] (0.03 M phosphate, […] MgCl2, 1 mM DTT, pH 7.4, 25 °C, guanine 40 μM, PRib-PP varied 20 to 630 μM), 30.5 ± 1.5 µM. Moreover, the “Ki for GMP, fold lower than for IMP” value on TbrHGPRT [2] (TbrHGPRT) was determined as 2.5 fold. Further, the “Ki for TbrHGPRT, fold higher than for human HGPRT” value on TbrHGPRT [2] (TbrHGPRT vs human HGPRT) is listed as 5 fold.

Turning to `Nc1nc2nc[nH]c2c(=O)[nH]1` [Guanine], the figures for the Michaelis-Menten constant (Km) in the experiment with Human HGPRT [3] (setting [6]) and with TcrHGPRT (setting [7]) were 1.9 ± 0.4 µM and 9.9 ± 0.29 µM, respectively. The kcat (in general, the number of substrate molecules converted per active site and unit of time at saturation) was 8.2 ± 0.6 s⁻¹ in the experiment with Human HGPRT [3] (ref de Jersey et al. 10) and 41.2 ± 2.9 s⁻¹ in the experiment with TcrHGPRT (setting [8]).

In the case of `O=c1[nH]cnc2nc[nH]c12` [Hypoxanthine], the figures for the Michaelis-Menten constant (Km) in the experiment with Human HGPRT [3] (setting [6]) and in the experiment with TcrHGPRT (setting [7]) were 3.4 ± 1 µM and 8.6 ± 1 µM, respectively. Also, the kcat with Human HGPRT [3] (ref de Jersey et al. 10) was 5.2 ± 0.4 s⁻¹; in the experiment on TcrHGPRT (setting [8]), 23 s⁻¹. In addition, at TbrHGPRT [4] (TbrHGPRT), the “Km, fold higher than for guanine” value is reported as 2 fold.

Consider `O=P(O)(O)OC[C@H]1O[C@H](OP(=O)(O)OP(=O)(O)O)[C@H](O)[C@@H]1O` [PRib-PP], for which the Km – broadly, the concentration of substrate that gives half-maximal velocity – is 59.6 ± 6 µM in the experiment with Human HGPRT [3] (setting [6]) and 32.4 ± 3.1 µM in the experiment on TcrHGPRT (setting [7]).

For the molecule `O=c1[nH]c(=O)c2nc[nH]c2[nH]1` [Xanthine], the Km result in the experiment on Human HGPRT [3] (ref de Jersey et al. 10) is reported as “Not a substrate”; with TcrHGPRT (setting [8]), “No activity reported”; on TbrHGPRT [4] (0.03 M phosphate buffer, […] MgCl2, 1 mM DTT, pH 7.4, 25 °C, bases at 500 μM PRib-PP, PRib-PP at 40 μM guanine), “Weak activity”. Further, the turnover number (kcat) entry with Human HGPRT [3] (ref de Jersey et al. 10) is “Not a substrate”; with TcrHGPRT (setting [8]), “No activity reported”; at TbrHGPRT [4] (0.03 M phosphate buffer, […] MgCl2, 1 mM DTT, pH 7.4, 25 °C), “Weak activity”. Besides, the “activity as a substrate” value on TbrHGPRT [4] (TbrHGPRT) was “only very weak activity”.

In the case of `N.N.O=S(=O)(O)O` [sulphate, ammonium sulphate], the inhibition (in general, the drop in the measured response relative to a control, in per cent) against TbrHGPRT [5] amounted to 25%.

(Values after publication PMC5081515 (Scientific Reports, 2016).)
